Patent publication US20250120399A1, “METHODS AND COMPOSITIONS FOR ALTERING METABOLITES IN VITIS SPP. AND PREVENTING PESTS AND PATHOGENS” (Impello Biosciences, Inc., priority 2022, published 2025)

Key:
Assay type in all cases: in vivo
[1] = test system: Black seedless grapes (Vitis labrusca); test: Red grape panel analysis (ETS Laboratories), black seedless grapes (Example 5); conditions: for Fruit catechin: ABCDE, Aug. 18, 2022
Protocol: (§1) Field trials were conducted in California 2022 (a dry year) to investigate the efficacy of MDJ in preventing Sour Rot caused by Aspergillus carbonarius (also known as summer bunch rot, abbreviated ASPECA in Table 7). Black seedless grapes (Vitis labrusca) were used in this trial. Four vines were used per plot. The plots were arranged in a randomized complete block design with six replicates (plots) per treatment. The plots were sprayed five times (ABCDE) at a rate of 500 gal/AC.
(§2) Treatments consisted of MDJ at 32 oz and 48 oz/A. A treatment of Regalia® at 1.5 qt/100 gal and Stargus® at 2 qt/100 gal was included for comparative purposes. Application D occurred at 5-10% veraison. Application E occurred at 40% veraison.
(§3) A randomly selected sample of approximately twenty wine grapes was used to evaluate the Brix and titratable acid. Another randomly selected sample (>500 g) was shipped to ETS Laboratories (Paso Robles, CA) for a red grape panel analysis (catechin, quercetin glycosides, tannin, polymeric anthocyanins, total anthocyanins, catechin/tannin index, and polymeric anthocyanins/tannin index). […] Total anthocyanins increased over 17% (449.1 in untreated controls compared to 529.3 in the group treated with 48 oz/A MDJ). An increase in quercetin glycosides, tannin, and polymeric anthocyanins, was also observed in MDJ treated plants (Table 8), as well as titratable acid (Table 9).

[2] = test system: Black seedless grapes (Vitis labrusca); test: Fruit Brix and titratable acid, black seedless grapes (Example 5); conditions: for Fruit BRIX / Titratable Acid, fruit: ABCDE; for Fruit BRIX: Aug. 11, 2022; for Titratable Acid, fruit: Sep. 8, 2022
Protocol: as §1, §2, §3

Botrytis cinerea [3] = test: Botrytis cinerea disease score (0-5) on inoculated hemp plants (Example 7); conditions: at harvest, 8 replicates
Protocol: A Botrytis cinerea isolate was cultured onto potato-dextrose agar (PDA) and re-isolated by taking a mycelial plug from the edge of actively growing cultures every 2-3 weeks to maintain active growing culture. It was maintained at 20° C. under continuous light (˜[…] m^−2 s^−1). An inoculum was prepared by flooding a full grown B. cinerea PDA plate with DI water and 0.1% Tween-20 to create a suspension of fungal spores. Spore count was quantified.
In the first inoculation, a suspension of 1.2×10^4 spores of B. cinerea/mL was created, and 1.5 mL was applied to the top cola/underdeveloped inflorescence of each hemp plant in the first week of flowering. In the second inoculation, a suspension of 1.5×10^5 spores of B. cinerea/mL was created, and sucrose was added to 1% concentration, and the plants were sprayed until drip using a backpack sprayer.
Inoculated plants were placed in a controlled growth environment with a constant temperature of 20-25° C. and 50-70% relative humidity. (See Zhang et al., “Infection Assays of Tomato and Apple Fruit by the Fungal Pathogen Botrytis cinerea,” bio-protocol 2014; 4 (23): 1-4. See also, Bulger et al. Phytopathology 1987; 77 (8): 1225-1230 and Garfinkel, Plant Disease 2020; 104 (7): 2026.)
Treatments comprising 1 mM or 5 mM jasmonate (MDJ) were applied alone or alongside a biological (Continuum™). […]

Botrytis cinerea [4] = test: Laccase analysis for prevalence of Botrytis, 2021 field trial (Example 3); conditions: cabernet sauvignon; approx. 5 mM MDJ at 50 gal/acre, four applications
Protocol: MDJ was applied to fields of grape to investigate the efficacy of MDJ in preventing bunch rot on (Botrytis cinerea) and powdery mildew (Erysiphe necator) on grapes. […] (1 liter) per 50 gallons of water (approximately a 5 mM solution of MDJ). The composition was then applied (at a rate of 50 gallons per acre) to three acres (1245 vines/acre) of a cabernet sauvignon variety grown in Napa Valley, CA. There was a total of four applications between June and September using a ground spray rig. To investigate the prevalence of Botrytis, the enzyme laccase was analyzed. Laccase can negatively impact wine by causing premature browning of bottled white wine and color degradation in red wine. The MDJ treated group had 2 units/ml, whereas the control (grower standard) had 5 units/ml. This level in the control group means that Botrytis problems can be expected during the wine making process, whereas in the MDJ treated group, the value of 2 units/ml means there will be no issues with Botrytis during the wine making process.

[5] = fruit, Aug. 18, 2022, 32 oz/a, applications ABCDE
[6] = fruit, Aug. 18, 2022, 48 oz/a, applications ABCDE

`CCCCCC1C(=O)CCC1CC(=O)OC` (centres unmarked) [MDJ, methyl dihydrojasmonate] was tested, and the Fruit catechin ([1]; 32 oz/a) was 0.8b mg/L, the “Increase of total anthocyanins vs untreated controls” value ([1]; 48 oz/A MDJ) was “over 17%” and the total anthocyanins ([1]; 48 oz/A MDJ) was 529.3. The Fruit catechin ([1]; 48 oz/a) was 2.6a mg/L, the Catechin vs untreated ([1]; MDJ treated plants) was “increase” and the “Polymeric anthocyanins vs untreated” value ([1]; MDJ treated plants) was “increase”. The “Quercetin glycosides vs untreated” value ([1]; MDJ treated plants) was “increase”, the Tannin vs untreated ([1]; MDJ treated plants) was “increase” and the catechin/tannin index [1, 5] was 0.0—. For the same compound, the polymeric anthocyanins [1, 5] was 13.5— mg/L, the polymeric anthocyanins/tannin index [1, 5] was 0.0312— and the quercetin glycosides [1, 5] was 89.8— mg/L. For the same compound, the tannin [1, 5] was 432.0— mg/L, the total anthocyanins [1, 5] was 388.3— mg/L and the catechin/tannin index [1, 6] was 0.0—. The polymeric anthocyanins [1, 6] was 14.7— mg/L, the polymeric anthocyanins/tannin index [1, 6] was 0.0304— and the quercetin glycosides [1, 6] was 113.2— mg/L. For the same compound, the tannin [1, 6] was 483.2— mg/L, the total anthocyanins [1, 6] was 529.3— mg/L and the “Fruit BRIX” value ([2]; 32 oz/a) was 19.080— %. For the same compound, the “Titratable Acid, fruit” value ([2]; 32 oz/a) was 5.83— g/L, the “Fruit BRIX” value ([2]; 48 oz/a) was 19.560— % and the “Titratable Acid, fruit” value ([2]; 48 oz/a) was 6.67— g/L. For the same compound, the “Fruit Brix vs untreated” value ([2]; MDJ treated plants) was “increase”, the “Titratable acid vs untreated” value ([2]; MDJ treated plants) was “increase” and the “Average Disease Score (0-5)” value (Botrytis cinerea [3]; condition B, 1 mM MDJ foliar spray) was 2.625. For the same compound, the “Average Disease Score (0-5)” value (Botrytis cinerea [3]; condition C, 5 mM MDJ foliar spray) was 2.250 and the Laccase (Botrytis cinerea [4]) was 2 units/ml.
